Experimental data as given in US11597737B2, “Small molecule inhibitors selective for polo-like kinase proteins” (UNIVERSITY OF SOUTH CAROLINA, priority 2016, dated 2023).
Read-outs that look alike come from different tables or passages of the source. Values belong to the molecule of their own block, whether it stands above or below them.

Key:
PLK1 PBD (367-603) = biological target: T1, PLK1 PBD (367-603) (Homo sapiens, UniProt P53350); experiment: Fluorescence polarization assay, PLK1 PBD; assay type: binding
T1 construct: PLK1 PBD (367-603); purchased BPS Biosciences Inc. (San Diego, Calif.)
Description: (§1) Fluorescence Polarization Assay
(§2) Materials were dissolved in DMSO (10 mM) and diluted from 10 nM to 600 μM (maximum of 6% DMSO tolerance in the assay). […] Incubation was carried out at room temperature for 45 minutes. Fluorescence was measured using a DTX 880 plate reader and Multimode Analysis software (Beckman Coulter, Brea, Calif.). […] Each data point was performed in triplicate for every experiment, and experiments were performed at least three times. An IC50 value for each compound was calculated from linear regression analysis of the plots.

PC3 cells [1] = experiment: Cell cycle analysis and BrdU pulse labeling in PC3 cells, FIG. 9-11; assay type: cell-based
Description: (§3) Analysis of Cell Cycle Progression by FACS
(§4) Serum-Starved Synchronization
(§5) Cells were synchronized in G1 by serum starvation. Briefly, exponentially growing cells were plated overnight. Media (DMEM, 10% FBS, 1% Pen. Strep.) was then removed and replaced with media containing no FBS. Cells were starved for 72 hours then treated for 24 hours with inhibitor. Following treatment, cells were harvested and processed for endpoint experimental analysis.
(§6) Ethanol fixative was removed by centrifugation and the cells were washed with 1 mL ice-cold PBS/1% BSA. Cells were denatured by resuspending in 0.2 mg/mL pepsin in 2N HCl and incubated in 37° C. water bath for 15 minutes. Hydrolysis was then terminated by adding 1 M Invitrogen™ Novex® Tris-Glycine. Cells were then washed with PBS/1% BSA then the primary anti-BrdU antibody (1:100 dilution in TBFP; 0.5% Tween-20, 1% BSA, 1% FBS, PBS) was added and cells were incubated for 25 minutes in the dark, at room temperature. […] Cells were washed once more with PBS/1% BSA and re-suspended in DAPI for 30 minutes before being analyzed by flow cytometry.
The PLK1 PBD-inhibitors were analyzed further by cell cycle analysis in PC3 cells (FIG. 9). […] To quantify the percentage of cells actively proliferating (synthesizing their DNA) or arrested Bromodeoxyuridine (BrdU) pulse labeling was carried out and analyzed by flow cytometry.

[2] = test system: HeLa cervical cancer cells; experiment: Cell viability assay (MTT), HeLa; assay type: cell-based; conditions: read-out: HeLa
Description: HeLa cervical cancer cells were obtained from ATCC (Manassas, Va.). […] Cells were maintained in DMEM (Invitrogen™, Carlsebad, Calif.) supplemented with 10% FBS or Corning© Nu-Serum™ (BD™ Biosciences, Franklin Lakes, N.J.) and 1% penicillin/streptomycin (Invitrogen™) in a humidified incubator and 5% CO2 at 37° C.
(§7) Exponentially growing cells were plated in 96-well dishes. Dose response curves were used to treat cells for 72 hours with inhibitors. Following the three-day treatment, cell viability was measured using the MTT (3-(4,5-dimethylthiazol-2-yl)-2,5-diphenyltetrazolium bromide) colorimetric assay. Cells were incubated for 3 hours with MTT allowing viable cells to metabolize the tetrazolium dye to a purple colored solution.

[3] = test system: HCT-116 (p53−/−) colon cancer cells; experiment: Cell viability assay (MTT), HCT116 p53-/-; assay type: cell-based; conditions: 72 hours
Description: HCT-116 (p53+/+ and −/−) colon cancer cells were maintained DMEM (Invitrogen™, Carlsebad, Calif.) supplemented with 10% FBS or Nu-serum (BD™ Biosciences, Franklin Lakes, N.J.) and 1% penicillin/streptomycin (Invitrogen™) in a humidified incubator and 5% C02 at 37° C.
as §7, with “solution. Absorbance measurements (595 nm) were quantified using a DTX 880 plate reader and IC50 values were generated for FLIPs.” for “solution.”

[4] = test system: PTEN deficient prostate cancer (PC3) cells; experiment: Cell viability assay (MTT), PC3; assay type: cell-based; conditions: read-out: PCC-3
Description: PC3 prostate cancer cells were maintained in DMEM (Invitrogen™, Carlsebad, Calif.) supplemented with 10% FBS or Corning® Nu-Serum™ (BD™ Biosciences, Franklin Lakes, N.J.) and 1% penicillin/streptomycin (Invitrogen™) in a humidified incubator and 5% C02 at 37° C.
as §7

[5] = test system: KRAS mutant lung cancer (A-549) cells; experiment: Cell viability assay (MTT), A-549; assay type: cell-based; conditions: 72 hours
Description: A-549 lung cancer cells were maintained in Hams F-12 1× with glutamine (Corning® Cellgro, Manassas, Va.), and supplemented with 10% FBS or Corning® Nu-Serum™ (BD™ Biosciences, Franklin Lakes, N.J.) and 1% penicillin/streptomycin (Invitrogen™) in a humidified incubator and 5% C02 at 37° C.
as §7, with “solution. Absorbance measurements (595 nm) were quantified using a DTX 880 plate reader and IC50 values were generated for FLIPs.” for “solution.”

PLK3 PBD (335-646) = biological target: T2, PLK3 PBD (335-646) (Homo sapiens, UniProt Q9H4B4); experiment: Fluorescence polarization assay, PLK3 PBD; conditions: PLK3 PBD binding
T2 construct: PLK3 PBD (335-646); purchased BPS Biosciences Inc. (San Diego, Calif.)
T2 sequence (Q9H4B4 335-646): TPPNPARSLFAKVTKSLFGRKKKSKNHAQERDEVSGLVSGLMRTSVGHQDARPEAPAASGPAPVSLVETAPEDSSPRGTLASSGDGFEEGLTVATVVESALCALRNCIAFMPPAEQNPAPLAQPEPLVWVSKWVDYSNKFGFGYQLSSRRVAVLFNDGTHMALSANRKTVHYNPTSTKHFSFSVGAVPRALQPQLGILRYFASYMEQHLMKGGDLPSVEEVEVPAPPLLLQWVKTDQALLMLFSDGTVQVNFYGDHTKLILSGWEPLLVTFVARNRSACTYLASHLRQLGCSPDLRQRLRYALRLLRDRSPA
Description: as §1, §2

[6] = Cytotoxicity, cell viability and apoptosis data, FIG. 12; assay type: cell-based; conditions: average from various assays
Source text: For instance, FIG. 12 presents cytotoxicity, cell viability, and apoptosis data for cells treated with inhibitor SCCP ID No: 6037. […] The data of FIG. 13 relates to SCCP ID No: 5914 and the data of FIG. 14 relates to SCCP ID No: 5915.

PC3 cells [7] = experiment: Cell cycle analysis after release (DAPI/BrdU FACS), FIG. 3; assay type: cell-based
Description: PLK specificity can be useful in therapeutic applications, as well as in research-oriented application.
as §3, §4, §5, §6

[8] = Cell cycle analysis and caspase apoptosis assay; assay type: cell-based
Source text: Disclosed small molecule inhibitors can also encourage apoptosis.

[9] = PLK1 PBD binding, fluorescence polarization, read-out: PLK1 IC50
[10] = Table 1, fluorescence polarization, read-out: PLK1 PBD IC50

T1 sequence (P53350 367-603): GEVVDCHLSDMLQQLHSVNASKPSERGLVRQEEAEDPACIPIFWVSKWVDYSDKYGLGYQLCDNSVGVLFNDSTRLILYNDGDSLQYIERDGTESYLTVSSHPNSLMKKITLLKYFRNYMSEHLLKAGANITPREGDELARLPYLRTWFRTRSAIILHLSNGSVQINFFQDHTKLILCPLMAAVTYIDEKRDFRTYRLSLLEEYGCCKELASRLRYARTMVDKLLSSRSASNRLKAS

IC50 (PLK1 PBD (367-603); [9]): 5.89 ± 1.25 µM
Compound: CCCCCCCCc1ccc(C(=O)Nc2ccc(OC)cc2C(=O)O)cc1 [SCCP ID No. 5935]
cell cycle phenotype (in words) (PC3 cells [1]; 15 μM): G1 delay or arrest

IC50 (PLK1 PBD (367-603); [9]): 30.6 ± 3.2 µM
Compound: CCCCCCCCc1ccc(C(=O)Nc2cc(F)cc(F)c2C(=O)O)cc1 [SCCP ID No. 5938]

IC50 (PLK1 PBD (367-603); [9]): 6.05 ± 1.9 µM
Compound: CCCCCCCCc1ccc(C(=O)Nc2cccc([N+](=O)[O-])c2C(=O)O)cc1 [SCCP ID No. 5939]

IC50 (PLK1 PBD (367-603); [9]): > 600 µM | binding to the PLK1 PBD (in words) (PLK1 PBD (367-603); fluorescence polarization): No binding was observed
Compound: CCCCCCc1ccc(C(=O)Nc2ccccc2OP(=O)(O)O)cc1 [SCCP ID No. 5940]

IC50 (PLK1 PBD (367-603); [9]): > 600 µM | binding to the PLK1 PBD (in words) (PLK1 PBD (367-603); fluorescence polarization): No binding was observed
Compound: CCCCCCc1ccc(C(=O)Nc2ccccc2O)cc1 [SCCP ID No. 5943]

IC50 ([2]; MTT, 72 hours): 20.1 ± 3.1 µM | IC50 [3]: 24.9 ± 2 µM | IC50 ([4]; MTT, 72 hours): 27.9 ± 2.6 µM | IC50 [5]: 13.3 ± 0.8 µM
Compound: CCCCCCCCc1ccc(C(=O)Nc2cccc(C(F)(F)F)c2C(=O)O)cc1 [SCCP ID No. 5945]

IC50 ([2]; MTT, 72 hours): 33.6 ± 2.6 µM | IC50 ([4]; MTT, 72 hours): 34.2 ± 2.5 µM
Compound: CCCCCCCCc1ccc(C(=O)Nc2cccc(O)c2C(=O)O)cc1 [SCCP ID No. 5946]

IC50 (PLK1 PBD (367-603); [9]): 9.57 ± 2.03 µM
Compound: CCCCCCCCc1ccc(CNc2ccccc2C(=O)O)cc1 [SCCP ID No. 5953]

IC50 (PLK1 PBD (367-603); [9]): > 600 µM | binding to the PLK1 PBD (in words) (PLK1 PBD (367-603); fluorescence polarization): undetectable | IC50 (PLK3 PBD (335-646)): 157 µM
Compound: CCCCCCCCc1ccc(CNc2ccc(C)cc2C(=O)O)cc1 [SCCP ID No. 5961]

IC50 (PLK1 PBD (367-603); [10]): > 200 µM
Compound: CCCCCCCCc1ccc(C(=O)NCCC(=O)O)cc1 [SCCP ID No. 5975]

IC50 (PLK1 PBD (367-603); [10]): 343 to 450 µM
Compound: CCCCCCCCc1ccc(C(=O)NCC(C)C(=O)O)cc1 (stereo not drawn) [SCCP ID No. 5976]

Compound: CCCCCCCCCCCCc1ccc(C(=O)Nc2ccccc2C(=O)O)cc1 [SCCP ID No. 6037]
cell viability [6]: 15.6 ± 3.4 µM | cytotoxicity [6]: 14.8 ± 3.6 µM | IC50 ([2]; Homo sapiens, HeLa, 72 h): 14 ± 3.5 µM | G2/M by DAPI (PC3 cells [7]; 5 μM): 7% | BrdU+ (PC3 cells [7]; 5 μM, FIG. 3 2nd panel): 27% | G1 by DAPI (PC3 cells [7]; 5 μM, FIG. 3 2nd panel): 77% | S by DAPI (PC3 cells [7]; 5 μM, FIG. 3 2nd panel): 15% | G2/M by DAPI (PC3 cells [7]; 20 μM, FIG. 3 3rd panel): 28% | PLK1 versus PLK3 specificity (in words) (PLK1 PBD (367-603); PBD binding): selectivity for PLK3 | IC50 (PLK1 PBD (367-603); [9]): 5.97 ± 0.38 µM | levels of apoptosis (in words) [8]: high levels of apoptosis | cells replicating their DNA (BrdU labeling) (PC3 cells [1]; 5 μM): 75.7% | BrdU+ (PC3 cells [1]; 15 μM): 1.9% | cell cycle phenotype (in words) (PC3 cells [1]; 15 μM): G1 arrest | cell cycle phenotype (in words) (PC3 cells [1]; both the lower (5 μM) and higher (15 μM) dose, FIG. 11): G1 accumulation | IC50 ([4]; Homo sapiens, PC-3, 72 h): 9.4 ± 0.8 µM
